US20110015068A1, “Herbicidal Compositions Comprising Pyroxasulfone V” (BASF SE, priority 2008, published 2011)
Read-outs that look alike come from different tables or passages of the source.

Key:
Format in all cases: in vivo
[1] = test system: Setaria italica; assay: pre-emergence greenhouse test, SETIT; conditions: Setaria italica, 25 g ai/ha, read-out: observed % activity
Text: (§1) For the pre-emergence treatment, directly after sowing the active compounds, which had been suspended or emulsified in water, were applied by means of finely distributed nozzles. The containers were irrigated gently to promote germination and growth and subsequently covered with transparent plastic hoods until plant had rooted. This cover caused uniform germination of the tests plants, unless this was adversely affected by active compounds.
(§2) The respective herbicides A and/or safener were formulated as 10% by weight strength suspension concentrate and introduced to the spray liquor with the amount of solvent system used for applying the active compound. Herbicide B and/or safener were used as commercially available formulations and introduced to the spray liquor with the amount of solvent system used for applying the active compound. In the examples, the solvent used was water.
(§3) The test period extended over 21 days. During this time, the plants were tended, and their response to the treatments with active compound was evaluated.
(§4) The evaluation for the damage caused by the chemical compositions was carried out using a scale from 0 to 100%, compared to the untreated control plants. Here, 0 means no damage and 100 means complete destruction of the plants.

[2] = test system: Bromus inermis; assay: pre-emergence greenhouse test, BROIN; conditions: Bromus inermis, 25 g ai/ha, read-out: observed % activity
Text: as §1, §2, §3, §4

[3] = test system: Chenopodium album; assay: pre-emergence greenhouse test, CHEAL; conditions: Chenopodium album, read-out: observed % activity; for inhibition at 25 g/ha: 25 g ai/ha; for inhibition at 50 g/ha: 50 g ai/ha
Text: as §1, §2, §3, §4

[4] = test system: Ipomoea purpurea; assay: pre-emergence greenhouse test, PHBPU; conditions: Ipomoea purpurea, read-out: observed % activity; for inhibition at 25 g/ha: 25 g ai/ha; for inhibition at 50 g/ha: 50 g ai/ha
Text: as §1, §2, §3, §4

[5] = test system: Polygonum convolvulus; assay: post-emergence greenhouse test, POLCO; conditions: for inhibition at 25 g/ha / inhibition at 50 g/ha / inhibition at 100 g/ha: Fallopia convolvulus, read-out: observed % activity; for inhibition at 25 g/ha: 25 g ai/ha; for inhibition at 50 g/ha: 50 g ai/ha; for inhibition at 100 g/ha: 100 g ai/ha
Text: (§5) For the post-emergence treatment, the test plants were first grown to a height of 3 to 20 cm, depending on the plant habit, and only then treated. Here, the herbicidal compositions were suspended or emulsified in water as distribution medium and sprayed using finely distributing nozzles.
as §2, §3, §4

[6] = test system: Galium aparine; assay: post-emergence greenhouse test, GALAP; conditions: for inhibition at 25 g/ha / inhibition at 100 g/ha: Galium aparine, read-out: observed % activity; for inhibition at 25 g/ha: 25 g ai/ha; for inhibition at 100 g/ha: 100 g ai/ha
Text: as §5, §2, §3, §4

[7] = test system: Digitaria sanguinalis; assay: post-emergence greenhouse test, DIGSA; conditions: 20 DAT
Text: as §5, §2, §3, §4

[8] = test system: Setaria viridis; assay: post-emergence greenhouse test, SETVI; conditions: 25 g ai/ha, 20 DAT, Table 3
Text: as §5, §2, §3, §4

Structure (SMILES): Cn1nc(C(F)(F)F)c(CS(=O)(=O)C2=NOC(C)(C)C2)c1OC(F)F [pyroxasulfone, 3-[5-(difluoromethoxy)-1-methyl-3-(trifluoromethyl)pyrazol-4-ylmethylsulfonyl]-4,5-dihydro-5,5-dimethyl-1,2-oxazole]
- inhibition at 25 g/ha ([1]; 192 h, 8 DAT): 75%
- inhibition at 25 g/ha ([1]; 480 h, 20 DAT): 98%
- inhibition at 25 g/ha ([2]; 192 h, 8 DAT): 60%
- inhibition at 25 g/ha ([2]; 480 h, 20 DAT): 75%
- inhibition at 25 g/ha ([3]; 192 h, 8 DAT): 65%
- inhibition at 50 g/ha ([3]; 192 h, 8 DAT): 70%
- inhibition at 25 g/ha ([3]; 480 h, 20 DAT): 95%
- inhibition at 50 g/ha ([3]; 480 h, 20 DAT): 98%
- inhibition at 25 g/ha ([4]; 192 h, 8 DAT): 40%
- inhibition at 50 g/ha ([4]; 192 h, 8 DAT): 65%
- inhibition at 25 g/ha ([4]; 480 h, 20 DAT): 50%
- inhibition at 50 g/ha ([4]; 480 h, 20 DAT): 90%
- observed activity in % destruction ([5]; 12.5 g ai/ha, 20 DAT, Table 3): 35%
- inhibition at 25 g/ha ([5]; 192 h, 8 DAT): 30%
- inhibition at 50 g/ha ([5]; 192 h, 8 DAT): 50%
- inhibition at 100 g/ha ([5]; 192 h, 8 DAT): 50%
- inhibition at 25 g/ha ([5]; 480 h, 20 DAT): 50%
- inhibition at 50 g/ha ([5]; 480 h, 20 DAT): 50%
- inhibition at 100 g/ha ([5]; 480 h, 20 DAT): 55%
- observed activity in % destruction ([6]; 12.5 g ai/ha, 20 DAT, Table 4): 40%
- inhibition at 25 g/ha ([6]; 192 h, 8 DAT): 60%
- inhibition at 100 g/ha ([6]; 192 h, 8 DAT): 70%
- inhibition at 25 g/ha ([6]; 480 h, 20 DAT): 85%
- inhibition at 100 g/ha ([6]; 480 h, 20 DAT): 90%
- observed activity in % destruction ([7]; 12.5 g ai/ha, Table 4): 50%
- observed activity in % destruction ([7]; 50 g ai/ha, Table 3): 80%
- observed activity in % destruction [8]: 75%
